# According to the supplement of paper PMC11061612:
# Columns and labels:
# [1] = test system: LNCaP-Clone-FGC (Prostate Carcinoma); experiment: Bliss excess, mean over the matrix (fraction); higher = more synergy
# Procedure, shortened: (§1)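 After 24 hours at 37°C and 5% CO2 in 1536-well plates, cells in DMEM/F12 or RPMI plus 10% FBS received two-drug dose matrices for 72 hours. Viability came from CellTiter-Glo 2.0 luminescence and was scaled as inhibition, anchored at 0 by vehicle wells and at 1 by blank wells. Combination Emax is taken as the second-highest inhibition in the matrix, and Bliss excess as the observed combination effect less EA + EB − EA·EB, with EA and EB the single-agent effects.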
# [2] = test system: LS-180 (Colorectal Carcinoma); experiment: as above
# Procedure, shortened: as §1
# [3] = test system: Ramos-2G6-4C10 (Burkitt's Lymphoma); experiment: as above
# Procedure, shortened: as §1
# [4] = test system: ME-1 (Acute Myeloid Leukemia); experiment: as above
# Procedure, shortened: as §1
# [5] = test system: KELLY (Neuroblastoma); experiment: as above
# Procedure, shortened: as §1
# [6] = test system: TE-9 (Esophageal Squamous Cell Carcinoma); experiment: combination Emax (second highest fraction inhibited in the dose matrix, 72 h); higher = more inhibition; extreme values may be limits of the assay
# Procedure, shortened: as §1
# [7] = test system: AGS (Gastric Carcinoma); experiment: as above
# Procedure, shortened: as §1
# [8] = test system: LNCaP-Clone-FGC (Prostate Carcinoma); experiment: as above
# Procedure, shortened: as §1
# [9] = test system: Daoy (Other Solid Carcinomas); experiment: as above
# Procedure, shortened: as §1
# [10] = test system: 42-MG-BA (Glioblastoma); experiment: as above
# Procedure, shortened: as §1
# [11] = test system: CAL-148 (Breast Carcinoma); experiment: as above
# Procedure, shortened: as §1
# [12] = test system: Calu-3 (Lung Adenocarcinoma); experiment: as above
# Procedure, shortened: as §1
# [13] = test system: NCI-H2085 (Non-Small Cell Lung Carcinoma); experiment: as above
# Procedure, shortened: as §1
# [14] = test system: DoTc2-4510 (Cervical Carcinoma); experiment: as above
# Procedure, shortened: as §1
# [15] = test system: MDA-MB-361 (Breast Carcinoma); experiment: as above
# Procedure, shortened: as §1
# [16] = test system: Ramos-2G6-4C10 (Burkitt's Lymphoma); experiment: as above
# Procedure, shortened: as §1
# [17] = test system: HO-1-N-1 (Oral Cavity Carcinoma); experiment: as above
# Procedure, shortened: as §1
# [18] = test system: HCC-78 (Lung Adenocarcinoma); experiment: as above
# Procedure, shortened: as §1
# [19] = test system: HuP-T4 (Pancreatic Carcinoma); experiment: as above
# Procedure, shortened: as §1
# 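Throughout, for Bliss excess, mean over the matrix: after 72 h of two-drug dosing.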
SMILES,Bliss excess [1],Bliss excess [2],Bliss excess [3],Bliss excess [4],Bliss excess [5],combination Emax [6],combination Emax [7],combination Emax [8],combination Emax [9],combination Emax [10],combination Emax [11],combination Emax [12],combination Emax [13],combination Emax [14],combination Emax [15],combination Emax [16],combination Emax [17],combination Emax [18],combination Emax [19]
"CN(C)CCCOc1ccc(-c2ccc3ncc4c(c3c2)n(C2CCOCC2)c(=O)n4C)cn1 [AZD0156] + C=CCn1c(=O)c2cnc(Nc3ccc(N4CCN(C)CC4)cc3)nc2n1-c1cccc(C(C)(C)O)n1 [AZD1775] (first compound max 1 µM, partner max 1 µM)",-0.045,-0.0459,0.0365,-0.0276,-0.0002,0.231,0.478,0.738,0.847,0.29,0.966,0.0731,0.6,0.473,0.858,0.995,0.348,0.313,0.217
"CN(C)CCCOc1ccc(-c2ccc3ncc4c(c3c2)n(C2CCOCC2)c(=O)n4C)cn1 [AZD0156] + CCN(CCO)CCCOc1ccc2c(Nc3cc(CC(=O)Nc4cccc(F)c4)[nH]n3)ncnc2c1 [AZD2811] (first compound max 1 µM, 7x7, partner max 1 µM)",-0.0257,-0.0264,0.0919,-0.0275,0.0099,0.0784,0.238,0.556,0.303,0.444,0.935,0.061,0.547,0.186,0.456,0.528,0.74,0.159,0.244
"CN(C)CCCOc1ccc(-c2ccc3ncc4c(c3c2)n(C2CCOCC2)c(=O)n4C)cn1 [AZD0156] + C[C@@H]1COCCN1C2=NC(=NC(=C2)C3(CC3)[S@](=N)(=O)C)C4=C5C=CNC5=NC=C4 [AZD6738] (first compound max 1 µM, 7x7, partner max 10 µM)",-0.056,-0.0347,0.0933,-0.107,0.0044,0.354,0.706,0.737,0.848,0.701,0.791,0.297,0.824,0.811,0.9,0.981,0.809,0.613,0.46
"C=CCn1c(=O)c2cnc(Nc3ccc(N4CCN(C)CC4)cc3)nc2n1-c1cccc(C(C)(C)O)n1 [AZD1775] + C[C@@H]1COCCN1C2=NC(=NC(=C2)C3(CC3)[S@](=N)(=O)C)C4=C5C=CNC5=NC=C4 [AZD6738] (first compound max 1 µM, partner max 10 µM)",-0.0387,-0.0098,0.0915,-0.0241,-0.0161,0.67,0.848,0.787,0.944,0.763,1,0.301,0.912,0.751,0.922,1,0.883,0.756,0.521
"C=CCn1c(=O)c2cnc(Nc3ccc(N4CCN(C)CC4)cc3)nc2n1-c1cccc(C(C)(C)O)n1 [AZD1775] + O=C(c1cc(Cc2n[nH]c(=O)c3ccccc23)ccc1F)N1CCN(C(=O)C2CC2)CC1 [Olaparib] (first compound max 1 µM, partner max 10 µM)",-0.0242,-0.0188,-0.0238,-0.0873,0.0038,0.307,0.547,0.77,0.882,0.278,0.978,0.173,0.566,0.458,0.861,1,0.437,0.377,0.251
"CCN(CCO)CCCOc1ccc2c(Nc3cc(CC(=O)Nc4cccc(F)c4)[nH]n3)ncnc2c1 [AZD2811] + C=CCn1c(=O)c2cnc(Nc3ccc(N4CCN(C)CC4)cc3)nc2n1-c1cccc(C(C)(C)O)n1 [AZD1775] (first compound max 1 µM, partner max 1 µM)",0.0001,0.0269,0.0096,-0.0812,0.0569,0.207,0.6,0.699,0.827,0.522,0.994,0.0931,0.688,0.534,0.801,0.957,0.848,0.327,0.27
"CCN(CCO)CCCOc1ccc2c(Nc3cc(CC(=O)Nc4cccc(F)c4)[nH]n3)ncnc2c1 [AZD2811] + C[C@@H]1COCCN1C2=NC(=NC(=C2)C3(CC3)[S@](=N)(=O)C)C4=C5C=CNC5=NC=C4 [AZD6738] (first compound max 1 µM, 7x7, partner max 10 µM)",-0.0447,-0.0723,-0.0008,-0.0813,-0.042,0.278,0.605,0.736,0.798,0.568,1,0.217,0.844,0.675,0.815,0.911,0.858,0.595,0.424
"CCN(CCO)CCCOc1ccc2c(Nc3cc(CC(=O)Nc4cccc(F)c4)[nH]n3)ncnc2c1 [AZD2811] + O=C(c1cc(Cc2n[nH]c(=O)c3ccccc23)ccc1F)N1CCN(C(=O)C2CC2)CC1 [Olaparib] (first compound max 1 µM, 7x7, partner max 10 µM)",-0.0009,0.0636,0.0573,0.0119,-0.0359,0.155,0.302,0.495,0.454,0.464,0.966,0.153,0.62,0.297,0.27,0.295,0.824,0.206,0.289
"C[C@@H]1COCCN1c1cc(C2([S@](C)(=N)=O)CC2)nc(-c2ccnc3[nH]ccc23)n1 [AZD6738] + O=C(c1cc(Cc2n[nH]c(=O)c3ccccc23)ccc1F)N1CCN(C(=O)C2CC2)CC1 [Olaparib] (first compound max 10 µM, 7x7, partner max 10 µM)",-0.0297,0.0208,-0.0881,-0.0056,0.0227,0.436,0.604,0.73,0.867,0.576,0.935,0.193,0.43,0.7,0.836,0.779,0.839,0.638,0.331
"Cc1cc2ncnn2cc1Nc1ncc2c(n1)n(C1CCOCC1)c(=O)n2C [AZD7648] + C=CCn1c(=O)c2cnc(Nc3ccc(N4CCN(C)CC4)cc3)nc2n1-c1cccc(C(C)(C)O)n1 [AZD1775] (first compound max 10 µM, partner max 1 µM)",-0.0273,-0.0272,0.0005,0.0321,0.015,0.275,0.736,0.775,0.869,0.439,0.928,0.242,0.512,0.531,0.824,0.998,0.532,0.432,0.288
"Cc1cc2ncnn2cc1Nc1ncc2c(n1)n(C1CCOCC1)c(=O)n2C [AZD7648] + CCN(CCO)CCCOc1ccc2c(Nc3cc(CC(=O)Nc4cccc(F)c4)[nH]n3)ncnc2c1 [AZD2811] (first compound max 10 µM, 7x7, partner max 1 µM)",-0.003,0.0165,0.188,0.0036,0.0518,0.234,0.529,0.535,0.445,0.472,0.911,0.235,0.717,0.301,0.61,0.789,0.826,0.342,0.342
"Cc1cc2ncnn2cc1Nc1ncc2c(n1)n(C1CCOCC1)c(=O)n2C [AZD7648] + CN(C)CCCOc1ccc(-c2ccc3ncc4c(c3c2)n(C2CCOCC2)c(=O)n4C)cn1 [AZD0156] (first compound max 10 µM, 7x7, partner max 1 µM)",0.0016,-0.0443,0.0236,-0.0326,0.0637,0.183,0.397,0.546,0.313,0.398,0.424,0.215,0.234,0.26,0.565,0.292,0.3,0.263,0.261
"CS(=O)(=O)CCNCc1ccc(-c2ccc3ncnc(Nc4ccc(OCc5cccc(F)c5)c(Cl)c4)c3c2)o1 [Lapatinib] + NC1(c2ccc(-c3nc4ccn5c(=O)[nH]nc5c4cc3-c3ccccc3)cc2)CCC1 [MK-2206] (first compound max 10 µM, 7x7, partner max 10 µM)",,0.0501,0.0215,-0.0069,0.0098,0.306,,,,,0.996,0.954,0.587,0.888,,0.954,0.963,0.264,
"CCc1c2c(nc3ccc(O)cc13)-c1cc3c(c(=O)n1C2)COC(=O)[C@]3(O)CC [SN-38] + O=C(c1cc(Cc2n[nH]c(=O)c3ccccc23)ccc1F)N1CCN(C(=O)C2CC2)CC1 [Olaparib] (first compound max 0.3 µM, 7x7, partner max 10 µM)",,0.064,0.0338,0.0041,0.0404,0.458,0.884,,0.971,1,0.96,0.398,0.132,0.988,,0.996,1,0.898,0.948
